Results on 23 molecules are retold here after US20250179059A1 (The Regents of the University of California, priority 2021, published 2025).

Assay [1] has as its target T1, human BRD4 bromodomain II (Homo sapiens, UniProt O60885).
T1 construct: human BRD4 bromodomain II [based on Genbank NM_058243, residues 349-460]; host or cells: E. coli
In words: Bromodomain binding assay (AlphaScreen), BRD4 BDII. The settings on record: AlphaScreen assay, Table C2; read-out: BRD4 BDII IC50. The gist of the method:
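Inhibition of acetyl-H4 peptide binding to human BRD4 bromodomains is measured by bead-based proximity (AlphaScreen) in pH 7.5 HEPES buffer containing 0.05% CHAPS and 0.1% BSA. Ten compound concentrations in 3-fold steps give competitive binding IC50s.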
On the technique in general: Alpha assays give light when donor and acceptor beads are brought close together.

The subject of assay [2] is human SKM-1 acute myeloid leukemia cells. The experiment in a line: SKM-1 antiproliferation cell-based assay (ATPlite). Particulars: Homo sapiens, SKM-1, 96 h, SKM-1 antiproliferation assay, 4 days, Table C2. The method in brief:
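Log-phase cells in RPMI 1640/15% FBS were seeded at 34722 cells/mL and exposed for 4 days to nine-concentration DMSO serial dilutions in triplicate. Viability was read as ATP luminescence (ATPlite 1step), and IC50 values came from variable-slope non-linear regression.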

The structures appear in SMILES notation. pIC50: −log10 of the molar value.

A word on the pIC50: it is −log10 of the IC50, conventionally taken in molar units. In general, GI50 refers to the concentration at which growth is held to half of that of the control. Read a low GI50 as more potent growth inhibition.

Regarding `C[C@@H]1CN(c2cncc(-c3cc(Cl)cc(-c4ccc(-n5ccn(C)c5=O)c(Cl)c4)c3O)c2)CCN1` [Example 529, (R)-1-(3,5′-dichloro-2′-hydroxy-3′-(5-(3-methylpiperazin-1-yl)pyridin-3-yl)-[1,1′-biphenyl]-4-yl)-3-methyl-1H-imidazol-2(3H)-one], in assay [1], the negative logarithm of the IC50 (pIC50) was 8.00 to 9.00. In addition, the concentration for 50% growth inhibition (GI50) in assay [2] lay within 0.3 to 30 nM.

Turning to `CC(C)N1CCN(c2cc(-c3cc(F)cc(-c4ccc(-n5ccn(C)c5=O)c(Cl)c4)c3O)ccn2)CC1` [Example 530, 1-(3-chloro-5′-fluoro-2′-hydroxy-3′-(2-(4-isopropylpiperazin-1-yl)pyridin-4-yl)-[1,1′-biphenyl]-4-yl)-3-methyl-1H-imidazol-2(3H)-one], the pIC50 in assay [1] is 9.00 to 11.00. In assay [2], the GI50 was 0.3 to 30 nM.

`Cn1ccn(-c2ccc(-c3cc(F)cc(-c4ccnc(N5CCN(C6CC6)CC5)c4)c3O)cc2Cl)c1=O` [Example 531, 1-(3-chloro-3′-(2-(4-cyclopropylpiperazin-1-yl)pyridin-4-yl)-5′-fluoro-2′-hydroxy-[1,1′-biphenyl]-4-yl)-3-methyl-1H-imidazol-2(3H)-one]: in assay [1], the negative-log IC50 (pIC50) is 8.00 to 9.00. The GI50 in assay [2] fell in the range of 30 to 300 nM.

As to `Cn1ccn(-c2ccc(-c3cc(F)cc(-c4ccnc(N5CCNc6ccccc65)c4)c3O)cc2Cl)c1=O` [Example 532, 1-(3-chloro-3′-(2-(3,4-dihydroquinoxalin-1(2H)-yl)pyridin-4-yl)-5′-fluoro-2′-hydroxy-[1,1′-biphenyl]-4-yl)-3-methyl-1H-imidazol-2(3H)-one], in assay [1], the pIC50 was less than 7.00. In assay [2], this molecule had a GI50 of no less than 3000 nM.

Consider `Cn1ccn(-c2ccc(-c3cc(F)cc(-c4cc(N5CC[C@H](N)C5)c5nc[nH]c5c4)c3O)cc2Cl)c1=O` [Example 533, (S)-1-(3′-(4-(3-aminopyrrolidin-1-yl)-1H-benzo[d]imidazol-6-yl)-3-chloro-5′-fluoro-2′-hydroxy-[1,1′-biphenyl]-4-yl)-3-methyl-1H-imidazol-2(3H)-one], for which the pIC50 in assay [1] was 8.00 to 9.00. Further, the GI50 in assay [2] is 0.3 to 30 nM.

Consider `C[C@@H]1CN(c2cc(-c3cc(F)cc(-c4ccc(-n5ccn(C)c5=O)c(F)c4)c3O)ccn2)CCN1` [Example 534, (R)-1-(3,5′-difluoro-2′-hydroxy-3′-(2-(3-methylpiperazin-1-yl)pyridin-4-yl)-[1,1′-biphenyl]-4-yl)-3-methyl-1H-imidazol-2(3H)-one], for which, in assay [1], the pIC50 is 8.00 to 9.00. This molecule also came in with a GI50 in assay [2] of 0.3 to 30 nM.

As for `Cn1ccn(-c2ccc(-c3cc(F)cc(-c4cc(N5CCNCC5)c5nn[nH]c5c4)c3O)cc2Cl)c1=O` [Example 535, 1-(3-chloro-5′-fluoro-2′-hydroxy-3′-(4-(piperazin-1-yl)-1H-benzo[d][1,2,3]triazol-6-yl)-[1,1′-biphenyl]-4-yl)-3-methyl-1H-imidazol-2(3H)-one], in assay [1], the pIC50 is 8.00 to 9.00. The molecule further yielded a GI50 in assay [2] of 0.3 to 30 nM.

For `C[C@@H]1CN(c2cc(-c3cc(F)cc(-c4ccc(-n5ccn(C)c5=O)c(Cl)c4)c3O)cc3[nH]nnc23)CCN1` [Example 536, (R)-1-(3-chloro-5′-fluoro-2′-hydroxy-3′-(4-(3-methylpiperazin-1-yl)-1H-benzo[d][1,2,3]triazol-6-yl)-[1,1′-biphenyl]-4-yl)-3-methyl-1H-imidazol-2(3H)-one], the negative logarithm of the IC50 (pIC50) in assay [1] is 8.00 to 9.00. Also, the 50% growth inhibitory concentration (GI50) in assay [2] lay in the range of 0.3 to 30 nM.

Turning to `Cn1ccn(-c2ccc(-c3cc(F)cc(-c4cc(N5CC[C@H](N)C5)c5nn[nH]c5c4)c3O)cc2Cl)c1=O` [Example 537, (S)-1-(3′-(4-(3-aminopyrrolidin-1-yl)-1H-benzo[d][1,2,3]triazol-6-yl)-3-chloro-5′-fluoro-2′-hydroxy-[1,1′-biphenyl]-4-yl)-3-methyl-1H-imidazol-2(3H)-one], the pIC50 in assay [1] was 8.00 to 9.00. In addition, the GI50 in assay [2] lay in the range of 30 to 300 nM.

In the case of `C[C@@H]1CN(c2cc(-c3cc(Cl)cc(-c4ccc(-n5ccn(C)c5=O)c(F)c4)c3O)ccn2)CCN1` [Example 538, (R)-1-(5′-chloro-3-fluoro-2′-hydroxy-3′-(2-(3-methylpiperazin-1-yl)pyridin-4-yl)-[1,1′-biphenyl]-4-yl)-3-methyl-1H-imidazol-2(3H)-one], the pIC50 in assay [1] is 8.00 to 9.00. Besides, the 50% growth inhibitory concentration (GI50) in assay [2] lay within 30 to 300 nM.

On to `Cn1ccn(-c2ccc(-c3cc(Cl)cc(-c4ccnc(N5CC[C@H](N)C5)c4)c3O)cc2Cl)c1=O` [Example 539, (S)-1-(3′-(2-(3-aminopyrrolidin-1-yl)pyridin-4-yl)-3,5′-dichloro-2′-hydroxy-[1,1′-biphenyl]-4-yl)-3-methyl-1H-imidazol-2(3H)-one], for which, in assay [1], the negative logarithm of the IC50 (pIC50) is 8.00 to 9.00. In addition, the GI50 in assay [2] lay in the range of 0.3 to 30 nM.

Regarding `C[C@@H]1CN(c2cc(-c3cc(Cl)cc(-c4ccc(-n5ccn(C)c5=O)c(Cl)c4)c3O)ccn2)CCN1` [Example 540, (R)-1-(3,5′-dichloro-2′-hydroxy-3′-(2-(3-methylpiperazin-1-yl)pyridin-4-yl)-[1,1′-biphenyl]-4-yl)-3-methyl-1H-imidazol-2(3H)-one], the pIC50 in assay [1] was 8.00 to 9.00. Besides, the GI50 in assay [2] is 0.3 to 30 nM.

As for `Cn1ccn(-c2ccc(-c3cc(F)cc(-c4ccnc(N5CC[C@H](N)C5)c4)c3N)cc2Cl)c1=O` [Example 541, (S)-1-(2′-amino-3′-(2-(3-aminopyrrolidin-1-yl)pyridin-4-yl)-3-chloro-5′-fluoro-[1,1′-biphenyl]-4-yl)-3-methyl-1H-imidazol-2(3H)-one], the pIC50 in assay [1] is 8.00 to 9.00. This molecule came in with a GI50 in assay [2] of 30 to 300 nM.

On to `C[C@@H]1CN(c2cc(-c3cc(F)cc(-c4ccc(-n5ccn(C)c5=O)c(Cl)c4)c3N)ccn2)CCN1` [Example 542, (R)-1-(2′-amino-3-chloro-5′-fluoro-3′-(2-(3-methylpiperazin-1-yl)pyridin-4-yl)-[1,1′-biphenyl]-4-yl)-3-methyl-1H-imidazol-2(3H)-one], for which the negative logarithm of the IC50 (pIC50) in assay [1] was 8.00 to 9.00. Further, the GI50 in assay [2] lay within 30 to 300 nM.

In the case of `C[C@@H]1CN(c2cc(-c3cc(F)cc(-c4ccc(-n5ccn(C)c5=O)c(Cl)c4)c3O)cc3[nH]ncc23)CCN1` [Example 543, (R)-1-(3-chloro-5′-fluoro-2′-hydroxy-3′-(4-(3-methylpiperazin-1-yl)-1H-indazol-6-yl)-[1,1′-biphenyl]-4-yl)-3-methyl-1H-imidazol-2(3H)-one], the pIC50 in assay [1] is 9.00 to 11.00. This molecule also registered a GI50 in assay [2] of 0.3 to 30 nM.

As to `CC(=O)Nc1cc(-c2cc(F)cc(-c3ccc(-n4ccn(C)c4=O)c(Cl)c3)c2O)cc(N2CCN[C@H](C)C2)n1` [Example 544], the negative-log IC50 (pIC50) in assay [1] is 9.00 to 11.00. Besides, the GI50 in assay [2] lay within 0.3 to 30 nM.

Regarding `Cc1cc(-c2cncc(N3CCN[C@H](C)C3)c2)c(O)c(-c2ccc(-n3ccn(C)c3=O)c(F)c2)c1` [Example 545, (R)-1-(3-fluoro-2′-hydroxy-5′-methyl-3′-(5-(3-methylpiperazin-1-yl)pyridin-3-yl)-[1,1′-biphenyl]-4-yl)-3-methyl-1H-imidazol-2(3H)-one], the pIC50 in assay [1] was 9.00 to 11.00. The molecule further yielded a 50% growth inhibitory concentration (GI50) in assay [2] of 0.3 to 30 nM.

Consider `Cc1cc(-c2ccnc(N3CCN[C@H](C)C3)c2)c(O)c(-c2ccc(-n3ccn(C)c3=O)c(F)c2)c1` [Example 546, (R)-1-(3-fluoro-2′-hydroxy-5′-methyl-3′-(2-(3-methylpiperazin-1-yl)pyridin-4-yl)-[1,1′-biphenyl]-4-yl)-3-methyl-1H-imidazol-2(3H)-one], for which the pIC50 in assay [1] is 9.00 to 11.00. Moreover, the GI50 in assay [2] lay in the range of 0.3 to 30 nM.

Consider `Cn1ccn(-c2ccc(-c3cc(F)cc(-c4cc(N5CCNCC5)c5nccnc5c4)c3O)cc2Cl)c1=O` [Example 547, 1-(3-chloro-5′-fluoro-2′-hydroxy-3′-(8-(piperazin-1-yl)quinoxalin-6-yl)-[1,1′-biphenyl]-4-yl)-^3-methyl-1H-imidazol-2(3H)-one], for which, in assay [1], the pIC50 is 9.00 to 11.00. In assay [2], the GI50 lay in the range of 0.3 to 30 nM.

In the case of `Cn1ccn(-c2ccc(-c3cc(F)cc(-c4cc(N5CC[C@H](N)C5)c5nccnc5c4)c3O)cc2Cl)c1=O` [Example 548, (S)-1-(3′-(8-(3-aminopyrrolidin-1-yl)quinoxalin-6-yl)-3-chloro-5′-fluoro-2′-hydroxy-[1,1′-biphenyl]-4-yl)-3-methyl-1H-imidazol-2(3H)-one], the pIC50 in assay [1] is 8.00 to 9.00. The molecule further yielded a GI50 in assay [2] of 0.3 to 30 nM.

Regarding `C[C@@H]1CN(c2cc(-c3cc(F)cc(-c4ccc(-n5ccn(C)c5=O)c(Cl)c4)c3O)cc3nccnc23)CCN1` [Example 549, (R)-1-(3-chloro-5′-fluoro-2′-hydroxy-3′-(8-(3-methylpiperazin-1-yl)quinoxalin-6-yl)-[1,1′-biphenyl]-4-yl)-3-methyl-1H-imidazol-2(3H)-one], the pIC50 in assay [1] was 8.00 to 9.00. The molecule further had a GI50 in assay [2] of 0.3 to 30 nM.

For the molecule `Cn1ccn(-c2ccc(-c3cc(F)cc(-c4cncc(N5CCNC6(CC6)C5)c4)c3O)cc2Cl)c1=O` [Example 550, 1-(3′-(5-(4,7-diazaspiro[2.5]octan-7-yl)pyridin-3-yl)-3-chloro-5′-fluoro-2′-hydroxy-[1,1′-biphenyl]-4-yl)-3-methyl-1H-imidazol-2(3H)-one], the negative-log IC50 (pIC50) in assay [1] is 9.00 to 11.00. The same molecule yielded a GI50 in assay [2] of 0.3 to 30 nM.

On to `C[C@@H]1CN(c2cc(-c3cc(F)cc(-c4ccc(-n5ccn(C)c5=O)c(Cl)c4)c3O)cc3[nH]ccc23)CCN1` [Example 551, (R)-1-(3-chloro-5′-fluoro-2′-hydroxy-3′-(4-(3-methylpiperazin-1-yl)-1H-indol-6-yl)-[1,1′-biphenyl]-4-yl)-3-methyl-1H-imidazol-2(3H)-one], for which the pIC50 in assay [1] was 9.00 to 11.00. Besides, the GI50 in assay [2] is 0.3 to 30 nM.
